Our source for the Activity values is ChEMBL document CHEMBL2074306, “Transport of bile acids in multidrug-resistance-protein 3-overexpressing cells co-transfected with the ileal Na+-dependent bile-acid transporter” (Biochem J, 2003).

Common to all, as to type: functional, cell membranes
Design in all cases: scale not given: the % may be the effect or the level left

Test [1] has as its target Multidrug resistance associated protein (Homo sapiens) (UniProt Q96QA9). The test can be described thus: TP_TRANSPORTER: inhibition of Etoposide glucuronide uptake (Etoposide glucuronide: 0.094 uM, MK571: 20 uM) by MK-571 at a concentration of 20uM in membrane vesicle from MRP3-expressing Sf9 cells.
The target is the same in test [2]. Put plainly: TP_TRANSPORTER: inhibition of Etoposide glucuronide uptake (Etoposide glucuronide: 0.094 uM, MK-571: 20.0 uM) in membrane vesicles from MRP3-expressing Sf9 cells. The note with it: Membrane vesicle.
For test [3] the target is unchanged. The test can be described thus: TP_TRANSPORTER: inhibition of Etoposide glucuronide uptake (Etoposide glucuronide: 0.094 uM, GC: 500.0 uM) in membrane vesicles from MRP3-expressing Sf9 cells. The note with it: Membrane vesicle.
The target is the same in test [4]. The test can be described thus: TP_TRANSPORTER: inhibition of Etoposide glucuronide uptake (Etoposide glucuronide: 0.094 uM, GC: 500 uM) by Glycocholate at a concentration of 500uM in membrane vesicle from MRP3-expressing Sf9 cells.
Test [5] has the same target. The test can be described thus: TP_TRANSPORTER: inhibition of Etoposide glucuronide uptake (Etoposide glucuronide: 0.094 uM, TLC-S: 50.0 uM) in membrane vesicles from MRP3-expressing Sf9 cells. The conditions noted are these: Membrane vesicle.
For test [6] the target is unchanged. The test can be described thus: TP_TRANSPORTER: inhibition of Etoposide glucuronide uptake (Etoposide glucuronide: 0.094 uM, TLCAS: 50 uM) by Taurolithocholate-3-sulfate at a concentration of 50uM in membrane vesicle from MRP3-expressing Sf9 cells.
The target is the same in test [7]. The test can be described thus: TP_TRANSPORTER: inhibition of Etoposide glucuronide uptake (Etoposide glucuronide: 0.094 uM, TCDC: 500.0 uM) in membrane vesicles from MRP3-expressing Sf9 cells. The note with it: Membrane vesicle.
Test [8] shares this target. Put plainly: TP_TRANSPORTER: inhibition of Etoposide glucuronide uptake (Etoposide glucuronide: 0.094 uM, TCDC: 500 uM) by Taurochenodeoxycholate at a concentration of 500uM in membrane vesicle from MRP3-expressing Sf9 cells.
Test [9] shares this target. The test can be described thus: TP_TRANSPORTER: inhibition of Etoposide glucuronide uptake (Etoposide glucuronide: 0.094 uM, […] uM) by Glycolithocholate-3-sulfate at a concentration of 20uM in membrane vesicle from MRP3-expressing Sf9 cells.
Test [10] shares this target. Put plainly: TP_TRANSPORTER: inhibition of Etoposide glucuronide uptake (Etoposide glucuronide: 0.094 uM, GLC-S: 20.0 uM) in membrane vesicles from MRP3-expressing Sf9 cells. The conditions noted are these: Membrane vesicle.
The target is the same in test [11]. Put plainly: TP_TRANSPORTER: inhibition of Etoposide glucuronide uptake (Etoposide glucuronide: 0.094 uM, LC-S: 20.0 uM) in membrane vesicles from MRP3-expressing Sf9 cells. The note with it: Membrane vesicle.
For test [12] the target is unchanged. The test can be described thus: TP_TRANSPORTER: inhibition of Etoposide glucuronide uptake (Etoposide glucuronide: 0.094 uM, Lithocholic acid-sulfate: 20 uM) by Lithocholate-3-sulfate at a concentration of 20uM in membrane vesicle from MRP3-expressing Sf9 cells.
For test [13] the target is unchanged. The test can be described thus: TP_TRANSPORTER: inhibition of Etoposide glucuronide uptake (Etoposide glucuronide: 0.094 uM, TDCA: 500.0 uM) in membrane vesicles from MRP3-expressing Sf9 cells. The conditions noted are these: Membrane vesicle.
For test [14] the target is unchanged. The test can be described thus: TP_TRANSPORTER: inhibition of Etoposide glucuronide uptake (Etoposide glucuronide: 0.094 uM, TDCA: 500 uM) by Taurodeoxycholate at a concentration of 500uM in membrane vesicle from MRP3-expressing Sf9 cells.

Chain of Multidrug resistance associated protein (Homo sapiens) (Q96QA9 as listed by the source): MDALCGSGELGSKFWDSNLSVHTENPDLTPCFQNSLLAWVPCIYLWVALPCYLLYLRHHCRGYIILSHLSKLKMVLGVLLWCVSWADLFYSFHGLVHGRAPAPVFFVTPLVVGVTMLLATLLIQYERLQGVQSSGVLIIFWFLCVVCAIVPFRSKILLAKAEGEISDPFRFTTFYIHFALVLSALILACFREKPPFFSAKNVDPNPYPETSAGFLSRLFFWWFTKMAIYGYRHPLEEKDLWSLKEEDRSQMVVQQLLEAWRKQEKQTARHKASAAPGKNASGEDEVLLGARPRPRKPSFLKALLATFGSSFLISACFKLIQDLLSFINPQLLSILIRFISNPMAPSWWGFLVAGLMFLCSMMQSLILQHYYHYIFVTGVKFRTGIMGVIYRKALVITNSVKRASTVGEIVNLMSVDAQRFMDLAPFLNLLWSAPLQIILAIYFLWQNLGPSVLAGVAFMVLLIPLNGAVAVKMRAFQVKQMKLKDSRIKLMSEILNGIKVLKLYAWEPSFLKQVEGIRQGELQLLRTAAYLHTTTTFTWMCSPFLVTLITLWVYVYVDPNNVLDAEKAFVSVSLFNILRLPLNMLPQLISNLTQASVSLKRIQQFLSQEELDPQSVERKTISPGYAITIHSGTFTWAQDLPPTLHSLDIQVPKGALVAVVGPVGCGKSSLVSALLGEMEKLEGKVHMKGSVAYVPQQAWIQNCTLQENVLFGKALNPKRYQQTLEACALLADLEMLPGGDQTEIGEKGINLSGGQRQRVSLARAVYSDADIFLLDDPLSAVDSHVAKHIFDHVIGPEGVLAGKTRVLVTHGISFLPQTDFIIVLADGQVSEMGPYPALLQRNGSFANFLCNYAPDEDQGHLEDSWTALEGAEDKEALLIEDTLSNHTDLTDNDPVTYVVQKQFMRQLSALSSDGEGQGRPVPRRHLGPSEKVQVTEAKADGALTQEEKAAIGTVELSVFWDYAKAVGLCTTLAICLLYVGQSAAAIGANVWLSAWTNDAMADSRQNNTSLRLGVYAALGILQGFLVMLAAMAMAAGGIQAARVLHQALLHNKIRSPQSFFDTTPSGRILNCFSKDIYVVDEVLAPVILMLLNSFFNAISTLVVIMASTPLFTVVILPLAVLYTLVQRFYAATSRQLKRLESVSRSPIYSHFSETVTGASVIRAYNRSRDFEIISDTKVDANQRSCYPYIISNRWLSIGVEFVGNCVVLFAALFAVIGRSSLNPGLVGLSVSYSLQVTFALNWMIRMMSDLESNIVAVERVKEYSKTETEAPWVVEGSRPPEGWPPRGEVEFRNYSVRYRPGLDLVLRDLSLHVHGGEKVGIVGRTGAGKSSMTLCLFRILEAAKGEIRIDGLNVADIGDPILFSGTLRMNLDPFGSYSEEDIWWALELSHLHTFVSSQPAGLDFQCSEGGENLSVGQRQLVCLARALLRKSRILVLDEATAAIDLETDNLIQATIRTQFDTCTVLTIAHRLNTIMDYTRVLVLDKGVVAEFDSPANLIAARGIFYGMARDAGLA

`CN(C)C(=O)CCSC(SCCC(=O)O)c1cccc(/C=C/c2ccc3ccc(Cl)cc3n2)c1` (centres undefined): the Activity in [1] and in test [2] was 40% in each case.

Turning to `C[C@H](CCC(=O)NCC(=O)O)[C@H]1CC[C@H]2[C@@H]3[C@H](O)C[C@@H]4C[C@H](O)CC[C@]4(C)[C@H]3C[C@H](O)[C@]12C`, the Activity in test [3] and in test [4] was 30% throughout.

`C[C@H](CCC(=O)NCCS(=O)(=O)O)C1CC[C@H]2[C@@H]3CC[C@@H]4C[C@H](OS(=O)(=O)O)CC[C@]4(C)[C@H]3CC[C@]12C` (some centres undefined): the Activity in test [5] and in test [6] was 8% each time.

As to `C[C@H](CCC(=O)NCCS(=O)(=O)O)[C@H]1CC[C@H]2[C@@H]3[C@H](O)C[C@@H]4C[C@H](O)CC[C@]4(C)[C@H]3CC[C@]12C`, the Activity in [7] and in test [8] was 6% throughout.

Turning to `C[C@H](CCC(=O)NCC(=O)O)[C@H]1CC[C@H]2[C@@H]3CC[C@@H]4C[C@H](OS(=O)(=O)O)CC[C@]4(C)[C@H]3CC[C@]12C`, the Activity in test [9] and in test [10] was 29% throughout.

As for `C[C@H](CCC(=O)O)[C@H]1CC[C@H]2[C@@H]3CC[C@@H]4C[C@H](OS(=O)(=O)O)CC[C@]4(C)[C@H]3CC[C@]12C`, the Activity in [11] and in [12] was 24% each time.

Take `C[C@H](CCC(=O)NCCS(=O)(=O)O)[C@H]1CC[C@H]2[C@@H]3CC[C@@H]4C[C@H](O)CC[C@]4(C)[C@H]3C[C@H](O)[C@]12C`: the Activity in [13] and in test [14] was 9% in each case.
